TGI and GI50 data for twelve compounds are collected here from PubChem BioAssay (NCI).

Test systems include SF-295 CNS; HCT-116 colon; HCT-15 colon; ACHN renal; NCI/ADR-RES ovarian; MDA-MB-231 breast; CAKI-1 renal; RPMI-8226 leukemia; MALME-3M melanoma; LOX IMVI melanoma.
What all share (assay): inhibition of tumour cell growth, NCI panel, 48 h

Each structure is given as a SMILES string.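 Test compounds were applied to cells in 96-well plates for 48 hours at 5 doses. GI50 is the concentration that inhibits growth by half. At the TGI there is no net growth.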 Where only a bound is given, the exact number is not on record here.

As to `O=C(CCN1CCN2c3ccccc3CCC2C1)c1ccc(F)cc1` (stereo not given), the TGI in the test on SF-295 CNS was above 100 µM; in the test with HCT-116 colon, above 100 µM; with HCT-15 colon it was 55.1 µM; in the test with ACHN renal it was 43.3 µM; in the test with NCI/ADR-RES ovarian it was above 100 µM; in the test with MDA-MB-231 breast, above 100 µM. The TGI in the test with CAKI-1 renal was 44.4 µM; in the test on RPMI-8226 leukemia it was above 100 µM; in the test on MALME-3M melanoma, 49.2 µM; with LOX IMVI melanoma it was above 100 µM.
On to `O=c1oc(C(C(F)(F)F)C(F)(F)F)nc2ccccc12`, for which the TGI in the test with SF-295 CNS, in the test with HCT-116 colon, in the test with HCT-15 colon, with ACHN renal, in the test on NCI/ADR-RES ovarian and in the test on MDA-MB-231 breast was above 100 µM throughout. Besides, the TGI in the test on CAKI-1 renal, with RPMI-8226 leukemia, in the test with MALME-3M melanoma and with LOX IMVI melanoma was above 100 µM each time.
Turning to `C/C(=N\Nc1nc2cc(C(F)(F)F)ccc2s1)c1ccccn1`, the TGI in the test on SF-295 CNS is 5.19 µM; in the test on HCT-116 colon, 2.98 µM; with HCT-15 colon, above 38.9 µM; with ACHN renal, 5.84 µM; in the test on NCI/ADR-RES ovarian it was 1.48 µM; in the test on MDA-MB-231 breast, 0.791 µM. Also, the TGI in the test on CAKI-1 renal was 5.14 µM; in the test on RPMI-8226 leukemia, above 85.2 µM; with MALME-3M melanoma, 8.9 µM; in the test with LOX IMVI melanoma, 2.48 µM.
In the case of `O=C1c2c(O)cccc2-c2nn(CCNCCO)c3ccc(NCCNCCO)c1c23`, the TGI is 1.39 µM with SF-295 CNS; 2.75 µM in the test with HCT-116 colon; 70.5 µM in the test with HCT-15 colon; 0.992 µM in the test on ACHN renal; above 100 µM in the test with NCI/ADR-RES ovarian; 2.51 µM in the test on MDA-MB-231 breast. Moreover, the TGI in the test on CAKI-1 renal came to 1.81 µM; in the test with RPMI-8226 leukemia, 7.65 µM; in the test on MALME-3M melanoma, 1.12 µM; with LOX IMVI melanoma it was 1.68 µM.
For `CCN(CC)C(=S)SS(=O)(=O)c1cccc(N)c1`, the TGI with SF-295 CNS, in the test on HCT-116 colon, in the test on HCT-15 colon, with ACHN renal, in the test on NCI/ADR-RES ovarian and in the test on MDA-MB-231 breast was above 100 µM in each case. Further, the TGI in the test with CAKI-1 renal, in the test on RPMI-8226 leukemia, in the test on MALME-3M melanoma and with LOX IMVI melanoma was above 100 µM in each case.
Regarding `NNC(=O)C1(NC(=O)c2ccccc2)C(c2ccccc2)C(c2ccccc2)=NN1c1ccccc1` (stereo not given), the TGI in the test on SF-295 CNS, in the test on HCT-116 colon, with HCT-15 colon, with ACHN renal, in the test with NCI/ADR-RES ovarian and in the test on MDA-MB-231 breast was above 100 µM in each case. Moreover, the TGI was 92 µM in the test with CAKI-1 renal, above 100 µM with RPMI-8226 leukemia, above 100 µM in the test on MALME-3M melanoma and above 100 µM in the test with LOX IMVI melanoma.
As to `Cc1ccc(S(=O)(=O)Nn2c(O)c(C#N)c(-c3ccc(Cl)cc3)c(C#N)c2=O)cc1`, the TGI in the test on SF-295 CNS, with HCT-116 colon, in the test with HCT-15 colon, with ACHN renal, in the test on NCI/ADR-RES ovarian and with MDA-MB-231 breast was above 100 µM throughout. Also, the TGI in the test with CAKI-1 renal, in the test with RPMI-8226 leukemia, with MALME-3M melanoma and with LOX IMVI melanoma was above 100 µM each time.
Regarding `C/C(=N\Nc1nc2ccccc2n1C)c1cc2ccccc2cn1`, the TGI in the test with SF-295 CNS stood at 5.39 µM; in the test on HCT-116 colon it was 5.83 µM; with HCT-15 colon, 20.7 µM; in the test on ACHN renal it was 11.8 µM; in the test with NCI/ADR-RES ovarian it was 1.55 µM; with MDA-MB-231 breast, 3.21 µM. Besides, the TGI was 12.5 µM with CAKI-1 renal, 1.63 µM with RPMI-8226 leukemia, 3.03 µM with MALME-3M melanoma and 4.33 µM in the test on LOX IMVI melanoma.
Take `O=C(c1cccs1)N1CCN(C(=O)c2cccs2)C1=S`: the TGI came out at 30.5 µM with SF-295 CNS; 21.7 µM in the test with HCT-116 colon; 17.7 µM in the test on HCT-15 colon; 20.5 µM in the test on ACHN renal; 59 µM with NCI/ADR-RES ovarian; 18.1 µM in the test with MDA-MB-231 breast. For the same compound, the TGI with CAKI-1 renal was 15.3 µM; in the test with RPMI-8226 leukemia, above 19.7 µM; with MALME-3M melanoma it was 28.7 µM; in the test with LOX IMVI melanoma it was 10.8 µM.
In the case of `COc1ccc2[nH]c(O)c(/C=c3/cc4c(c(-c5ccc(F)c(OC)c5)n3)=Nc3ccccc3-4)c2c1`, the GI50 is 2.26 µM in the test with SF-295 CNS; 1.82 µM in the test on HCT-116 colon; 2.36 µM in the test on HCT-15 colon; 3.01 µM in the test on ACHN renal; 2.56 µM with NCI/ADR-RES ovarian; 1.47 µM with MDA-MB-231 breast. Besides, the GI50 with CAKI-1 renal is 18.2 µM; in the test on RPMI-8226 leukemia, 2.04 µM; in the test on MALME-3M melanoma it was 2.03 µM; in the test on LOX IMVI melanoma, 1.72 µM. Besides, the TGI turned out to be 6.51 µM in the test with SF-295 CNS; 3.37 µM with HCT-116 colon; 5.63 µM with HCT-15 colon; 9.86 µM in the test on ACHN renal; 11.2 µM in the test with NCI/ADR-RES ovarian; 3.14 µM in the test with MDA-MB-231 breast. Moreover, the TGI worked out at 36.9 µM with CAKI-1 renal, 5.53 µM in the test with RPMI-8226 leukemia, 3.92 µM in the test on MALME-3M melanoma and 3.29 µM with LOX IMVI melanoma.
In the case of `C#CCn1c(=O)c(C)cn(/C(=C\C(=O)OCC)C(=O)OCC)c1=O`, the TGI with SF-295 CNS turned out to be 42.3 µM; with HCT-116 colon, 10.3 µM; in the test on HCT-15 colon, 8.23 µM; in the test with ACHN renal, 3.22 µM; in the test with NCI/ADR-RES ovarian, 17.1 µM; in the test with MDA-MB-231 breast, 31.2 µM. For the same compound, the TGI in the test with CAKI-1 renal is 2.86 µM; in the test with RPMI-8226 leukemia, above 23.2 µM; with MALME-3M melanoma, 5.6 µM; with LOX IMVI melanoma it was above 50.2 µM.
As to `CCCCCCCCCCCCCCCCCCNc1nc(=O)n(C2CC(O)C(COP(=O)(O)O)O2)cc1F` (stereo not given), the TGI with SF-295 CNS, with HCT-116 colon, in the test on HCT-15 colon, in the test with ACHN renal, with NCI/ADR-RES ovarian and with MDA-MB-231 breast was above 100 µM each time. Besides, the TGI in the test on CAKI-1 renal, with RPMI-8226 leukemia, with MALME-3M melanoma and with LOX IMVI melanoma was above 100 µM throughout.
